The assay addresses T1, human 20S proteasome (Homo sapiens, UniProt P28074).
T1 construct: purchased Boston Biochem
Put plainly: 20S Proteasome Assay. The class given is biochemical. Particulars: Ac-WLA-AMC substrate 15 μM, human PA28 activator 12 nM, human 20S proteasome 0.25 nM, 37° C., pH7.4.
For orientation: IC50 means the midpoint of a concentration-inhibition curve. The low end stands for higher potency, the high end for lower potency. On to `CC1(C)[C@@H]2C[C@H]3OB([C@H](CC4CCC4)NC(=O)[C@H](Cc4ccccc4)NC(=O)c4cccc(Oc5ccccc5)c4)O[C@@]3(C)[C@H]1C2` [Compound 13], for which the concentration for half-maximal inhibition (IC50) was less than 50 nM.
Then `O=C(N[C@@H](CC1CCC1)B(O)O)[C@H](Cc1ccccc1)NS(=O)(=O)c1cc(F)ccc1F` [Compound 38, {(1R)-2-cyclobutyl-1-[((2S)-2-{[(2,5-difluorophenyl)sulfonyl]amino}-3-phenylpropanoyl)amino]ethyl}boronic acid], with less than 50 nM.
The compound `CC(=O)N[C@@H](CCc1ccccc1)C(=O)N[C@@H](Cc1ccccc1)C(=O)N[C@@H](CC1CCC1)B1O[C@@H]2C[C@@H]3C[C@@H](C3(C)C)[C@]2(C)O1` [Compound 16, (2S)-2-(acetylamino)-N-[(1S)-1-benzyl-2-({(1R)-2-cyclobutyl-1-[(3aS,4S,6S,7aR)-3a,5,5-trimethylhexahydro-4,6-methano-1,3,2-benzodioxaborol-2-yl]ethyl}amino)-2-oxoethyl]-4-phenylbutanamide] gave an IC50 of less than 50 nM.
As to `O=C(c1cccc(S(=O)(=O)N[C@@H](Cc2ccccc2)C(=O)N[C@@H](CC2CCC2)B(O)O)c1)c1ccccn1` [Compound 29, ((1R)-2-cyclobutyl-1-{[(2S)-3-phenyl-2-({[3-(pyridin-2-ylcarbonyl)phenyl]sulfonyl}amino)propanoyl]amino}eth-yl)boronic acid], the IC50 was less than 50 nM.
Then `CC1(C)[C@@H]2C[C@H]3OB([C@H](CC4CCC4)NC(=O)[C@H](Cc4ccccc4)NC(=O)[C@H](CCc4ccccc4)NS(=O)(=O)Cc4ccccc4)O[C@@]3(C)[C@H]1C2` [Compound 21, (2S)-N-[(1S)-1-benzyl-2-({(1R)-2-cyclobutyl-1-[(3aS,4S,6S,7aR)-3a,5,5-trimethylhexahydro-4,6-methano-1,3,2-benzodioxaborol-2-yl]ethyl}amino)-2-oxoethyl]-2-[(benzylsulfonyl)amino]-4-phenylbutanamide], with less than 50 nM; and `CC1(C)[C@@H]2C[C@H]3OB([C@H](CC4CCC4)NC(=O)[C@H](Cc4ccccc4)NC(=O)c4cccnc4Oc4ccccc4)O[C@@]3(C)[C@H]1C2` [Compound 9, N-[(1S)-1-benzyl-2-({(1R)-2-cyclobutyl-1-[(3aS,4S,6S,7aR)-3a,5,5-trimethylhexahydro-4,6-methano-1,3,2-benzodioxaborol-2-yl]ethyl}amino)-2-oxoethyl]-2-phenoxynicotinamide], with less than 50 nM; and `O=C(N[C@@H](Cc1ccccc1)C(=O)N[C@@H](CC1CCC1)B(O)O)c1cccc(Oc2ccccc2)c1` [Compound 7, [(1R)-2-cyclobutyl-1-({(2S)-2-[(3-phenoxybenzoyl)amino]-3-phenylpropanoyl}amino)ethyl]boronic acid], with less than 50 nM.
`CC1(C)[C@@H]2C[C@H]3OB([C@H](CC4CCC4)NC(=O)[C@H](Cc4ccccc4)NS(=O)(=O)c4cccnc4)O[C@@]3(C)[C@H]1C2` [Compound 15, (2S)-N-{(1R)-2-cyclobutyl-1-[(3aS,4S,6S,7aR)-3a,5,5-trimethylhexahydro-4,6-methano-1,3,2-benzodioxaborol-2-yl]ethyl}-3-phenyl-2-[(pyridin-3-ylsulfonyl)amino]propanamide] came in with an IC50 of 50 to 150 nM.
For the compound `CC1(C)[C@@H]2C[C@H]3OB([C@H](CC4CCC4)NC(=O)[C@H](Cc4ccccc4)NC(=O)c4ccc5[nH]c(-c6ccccc6)nc5c4)O[C@@]3(C)[C@H]1C2` [Compound 14], the IC50 is less than 50 nM.
To `O=C(N[C@@H](CC1CCC1)B(O)O)[C@H](Cc1ccccc1)NS(=O)(=O)c1ccc2ncsc2c1` [Compound 48, [(1R)-1-({(2S)-2-[(1,3-benzothiazol-6-ylsulfonyl)amino]-3-phenylpropanoyl}-amino)-2-cyclobutylethyl]boronic acid] belongs less than 50 nM.
As to `O=C(N[C@@H](Cc1ccccc1)C(=O)N[C@@H](CC1CCC1)B(O)O)c1ccc(O)c(CN2CCOCC2)c1` [Compound 3, {(1R)-2-cyclobutyl-1-[((2S)-2-{[4-hydroxy-3-(morpholin-4-ylmethyl)benzoyl]amino}-3-phenylpropanoyl)amino]ethyl}boronic acid], the half-maximal inhibitory concentration (IC50) was less than 50 nM.
The compound `O=C(N[C@@H](CC1CCC1)B(O)O)[C@H](Cc1ccccc1)NS(=O)(=O)c1cccc2cnccc12` [Compound 47, [(1R)-2-cyclobutyl-1-({(2S)-2-[(isoquinolin-5-ylsulfonyl)amino]-3-phenylpropanoyl}amino)ethyl]boronic acid] yielded an IC50 of 50 to 150 nM.
`CC1(C)[C@@H]2C[C@H]3OB([C@H](CC4CCC4)NC(=O)[C@H](Cc4ccccc4)NC(=O)c4cccnc4Nc4cccc(C(F)(F)F)c4)O[C@@]3(C)[C@H]1C2` [Compound 19, N-[(1S)-1-benzyl-2-({(1R)-2-cyclobutyl-1-[(3aS,4S,6S,7aR)-3a,5,5-trimethylhexahydro-4,6-methano-1,3,2-benzodioxaborol-2-yl]ethyl}amino)-2-oxoethyl]-2-{[3-(trifluoromethyl)phenyl]amino}nicotinamide] registered an IC50 of less than 50 nM.
In the case of `Cc1nc(-c2cccc(S(=O)(=O)N[C@@H](Cc3ccccc3)C(=O)N[C@@H](CC3CCC3)B(O)O)c2)cs1` [Compound 44, ((1R)-2-cyclobutyl-1-{[(2S)-2-({[3-(2-methyl-1,3-thiazol-4-yl)phenyl]sulfonyl}amino)-3-phenylpropanoyl]amino}ethyl)boronic acid], the IC50 is less than 50 nM.
Then `CC1(C)[C@@H]2C[C@H]3OB([C@H](CC4CCC4)NC(=O)[C@H](Cc4ccccc4)NS(=O)(=O)c4ccc(Oc5ccccc5)nc4)O[C@@]3(C)[C@H]1C2` [Compound 24, (2S)-N-{(1R)-2-cyclobutyl-1-[(3aS,4S,6S,7aR)-3a,5,5-trimethylhexahydro-4,6-methano-1,3,2-benzodioxaborol-2-yl]ethyl}-2-{[(6-phenoxypyridin-3-yl)sulfonyl]amino}-3-phenylpropanamide], with less than 50 nM; and `CN1CCOc2ccc(C(=O)N[C@@H](Cc3ccccc3)C(=O)N[C@@H](CC3CCC3)B(O)O)cc21` [Compound 37, {(1R)-2-cyclobutyl-1-[((2S)-2-{[(4-methyl-3,4-dihydro-2H-1,4-benzoxazin-6-yl)carbonyl]amino}-3-phenylpropanoyl)amino]ethyl}boronic acid], with less than 50 nM.
To `CC1(C)[C@@H]2C[C@H]3OB([C@H](CC4CCC4)NC(=O)[C@H](Cc4ccccc4)NC(=O)c4cc(Cl)ccc4Cl)O[C@@]3(C)[C@H]1C2` [Compound 5, N-[(1S)-1-benzyl-2-({(1R)-2-cyclobutyl-1-[(3aS,4S,6S,7aR)-3a,5,5-trimethylhexahydro-4,6-methano-1,3,2-benzodioxaborol-2-yl]ethyl}amino)-2-oxoethyl]-2,5-dichlorobenzamide] belongs less than 50 nM; to `C[C@H](O)[C@H](NS(=O)(=O)c1ccc2c(c1)N(C)CCO2)C(=O)N[C@@H](CC1CCC1)B(O)O` [Compound 46, {(1R)-2-cyclobutyl-1-[((2S)-3-hydroxy-2-{[(4-methyl-3,4-dihydro-2H-1,4-benzoxazin-6-yl)sulfonyl]amino}butanoyl)amino]ethyl}boronic acid], 50 to 150 nM; to `O=C(N[C@@H](Cc1ccccc1)C(=O)N[C@@H](CC1CCC1)B(O)O)c1ccc(Oc2ccccc2)nc1` [Compound 39, {(1R)-2-cyclobutyl-1-[((2S)-2-{[(6-phenoxypyridin-3-yl)carbonyl]amino}-3-phenylpropanoyl)amino]ethyl}boronic acid], less than 50 nM.
Then `CN1CCOc2cc(S(=O)(=O)N[C@@H](Cc3ccccc3)C(=O)N[C@@H](CC3CCC3)B3O[C@@H]4C[C@@H]5C[C@@H](C5(C)C)[C@]4(C)O3)ccc21` [Compound 8, (2S)-N-{(1R)-2-cyclobutyl-1-[(3aS,4S,6S,7aR)-3a,5,5-trimethylhexahydro-4,6-methano-1,3,2-benzodioxaborol-2-yl]ethyl}-2-{[(4-methyl-3,4-dihydro-2H-1,4-benzoxazin-7-yl)sulfonyl]amino}-3-phenylpropanamide], with less than 50 nM; and `O=C(N[C@@H](CC1CCC1)B(O)O)[C@H](Cc1ccccc1)NS(=O)(=O)c1cccc(Oc2ccc(C(F)(F)F)cn2)c1` [Compound 34, {(1R)-2-cyclobutyl-1-[((2S)-3-phenyl-2-{[(3-{[5-(trifluoromethyl)pyridin-2-yl]oxy}phenyl)sulfonyl]amino}pro-panoyl)amino]ethyl}boronic acid], with less than 50 nM.
`O=C(N[C@@H](CC1CCC1)B(O)O)[C@H](Cc1ccccc1)NC(=O)[C@H](CCc1ccccc1)NS(=O)(=O)Cc1ccccc1` [Compound 4, [(1R,4S,7S)-4-benzyl-1-(cyclobutylmethyl)-9,9-dioxido-3,6-dioxo-10-phenyl-7-(2-phenylethyl)-9-thia-2,5,8-triazadec-1-yl]boronic acid] registered an IC50 of less than 50 nM.
Then `O=C(N[C@@H](CC1CCC1)B(O)O)[C@H](Cc1ccccc1)NS(=O)(=O)c1ccc(Oc2ccccc2)nc1` [Compound 11, {(1R)-2-cyclobutyl-1-[((2S)-2-{[(6-phenoxypyridin-3-yl)sulfonyl]amino}-3-phenylpropanoyl)amino]ethyl}boronic acid], with less than 50 nM.
Then `O=C(N[C@@H](Cc1ccccc1)C(=O)N[C@@H](CC1CCC1)B(O)O)c1cccnc1Nc1cccc(C(F)(F)F)c1` [Compound 23, {(1R)-2-cyclobutyl-1-[((2S)-3-phenyl-2-{[(2-{[3-(trifluoromethyl)phenyl]amino}pyridin-3-yl)carbonyl]amino}propanoyl)amino]ethyl}boronic acid], with less than 50 nM; and `CN1C(=O)Cc2cc(S(=O)(=O)N[C@@H](Cc3ccccc3)C(=O)N[C@@H](CC3CCC3)B(O)O)ccc21` [Compound 40, {(1R)-2-cyclobutyl-1-[((2S)-2-{[(1-methyl-2-oxo-2,3-dihydro-1H-indol-5-yl)sulfonyl]amino}-3-phenylpropanoyl)amino]ethyl}boronic acid], with less than 50 nM; and `CC1(C)[C@@H]2C[C@H]3OB([C@H](CC4CCC4)NC(=O)[C@H](Cc4ccccc4)NS(=O)(=O)c4ccc5ccccc5c4)O[C@@]3(C)[C@H]1C2` [Compound 12, (2S)-N-{(1R)-2-cyclobutyl-1-[(3aS,4S,6S,7aR)-3a,5,5-trimethylhexahydro-4,6-methano-1,3,2-benzodioxaborol-2-yl]ethyl}-2-[(2-naphthylsulfonyl)amino]-3-phenylpropanamide], with less than 50 nM.

These data come from patent publication US9771381B2, “Derivatives of 1-amino-2-cyclobutylethylboronic acid” (Millennium Pharmaceuticals, Inc., priority 2008, dated 2017).
